Assay results published in patent publication US20240299588A1, “NERVE LABEL” (UCL Business Ltd, priority 2021, published 2024).

Tests used:
[1] = system: sciatic nerves; experiment: In vivo peripheral nerve labelling in rats, intravenous 5-ALA, fluorescence imaging of sciatic nerve; set-up: species or system Wistar rats
Protocol: (§1) Images were obtained 24 hours after 5-ALA administration. A: bright field, B: fluorescence image with false colour scale (highest intensity red/white) in rats injected with porphyrin prodrug, C: control rat without any drug injection. Images were obtained with a CCD camera following excitation at 405 nm using a light-emitting diode (LED) and red porphyrin fluorescence was recorded at 620-650 nm. Scale bar 5 mm.
(§2) 5-ALA was obtained from Sigma as an HCl salt in powder form, was stored inside a freezer. Before use, it was thawed, dissolved in a buffered aqueous solution at about pH 5, and then administered intravenously or orally.
(§3) To investigate the potential of a porphyrin prodrug for in vivo peripheral nerve labelling, Wistar rats (n>10 were injected intravenously with the porphyrin prodrug (5-aminolevulinic acid, 5-ALA), as shown in FIG. 1. At set time-points after the injection, the rats were sacrificed and the sciatic nerves and brachial plexus (near the armpit) and surrounding tissues (e.g. muscle, fat tissues) were exposed. The fluorescence image was recorded using a CCD camera.

[2] = system: brachial plexus; experiment: In vivo peripheral nerve labelling in rats, intravenous 5-ALA, fluorescence imaging of brachial plexus; set-up: species or system Wistar rats
Protocol: (§4) Images were obtained 24 hours after 5-ALA administration using a CCD camera following excitation at 405 nm and porphyrin fluorescence was recorded at 620-650 nm. Scale bar 5 mm.
False colour scale, red/white corresponding to high intensity. BP: brachial plexus, ALN: axillary lymph node. (A): Fluorescence image of the brachial plexus 4 hours post-injection, and (B) the corresponding bright field image (C): Fluorescence image of the brachial nerve 24 hours post-injection. (D): Brachial plexus image in control rat without 5-ALA injection.
5-ALA was obtained from Sigma as an HCl salt in powder form, was stored inside a freezer. […]
as §3
Wistar rats were administered with 5-ALA intravenously at various concentrations including 100 mg/kg and 200 mg/kg. […] 5-ALA-induced fluorescence was also detected 4 hours after administration of 5-ALA.

[3] = system: sciatic nerve; experiment: In vivo imaging of sciatic nerve in rat following oral administration of 5-ALA; set-up: species or system rats
Protocol: as §1, with “(A) Bright” for “A: bright”, “(B)” for “B:”, “administered” for “injected”, “5-ALA.” for “porphyrin prodrug, C: control rat without any drug injection.”, “nm.” for “nm. Scale bar 5 mm.”
as §2
A high fluorescence signal-to-background ratio (SBR) on the peripheral nerves was observed compared to adjacent tissues. […] The results were reproducible and were tested in 5 rats.

[4] = system: sciatic nerves; experiment: In vivo visualisation of sciatic nerves at various times following intravenous administration of 5-ALA; set-up: species or system Wistar rats
Protocol: as §4, §2
Wistar rats were administered with 5-ALA intravenously at various concentrations including 100 mg/kg and 200 mg/kg. In vivo visualisation of peripheral nerves such as sciatic nerves and brachial plexus were obtained at various post injection times ranging from 1 hours up to few weeks after administration of 5-ALA. […] 5-ALA-induced fluorescence was also detected 4 hours after administration of 5-ALA.

[5] = system: facial nerves; experiment: In vivo visualisation of facial nerves following intravenous administration of 5-ALA; set-up: species or system Wistar rats; details: including 24 hours after administration
Protocol: Images were obtained 24 hours after 5-ALA administration. (A) fluorescence image (highest intensity white colour) in rats administered with 5-ALA, (B) Bright field, in rats administered with 5-ALA, (C) Bright field, in rats administered with 5-control, and (D) fluorescence image (highest intensity white colour) in rats administered with control. Images were obtained with a CCD camera following excitation at 405 nm using a light-emitting diode (LED) and red porphyrin fluorescence was recorded at 620-650 nm.
as §2
Wistar rats were administered with 5-ALA intravenously at different concentrations including 0 mg/kg (control), 100 mg/kg and 200 mg/kg. In vivo visualisation of facial nerves which are part of the cranial nerves were performed at various times including 24 hours after administration of 5-ALA. […] No fluorescence was detected in control rats (FIG. 8D).

[6] = sciatic nerve, intravenous injection, excitation 405 nm, fluorescence 620-650 nm, without optimisation of dose or time

In the case of `NCC(=O)CCC(=O)O` [5-ALA, 5-aminolevulinic acid], the “red porphyrin fluorescence in rat nerves” value ([1]; intravenous injection) is reported as “highly selective and localised”, the “diameter of small nerve branches that can be resolved” value ([1]; intravenous injection, fluorescence imaging) is reported as about 0.1 mm and the “nerve to fat tissue ratio (fluorescence signal-to-background ratio)” value [1, 6] is reported as over 10. The “nerve to muscle intensity ratio (fluorescence signal-to-background ratio)” value [1, 6] was over 15, the “time at which porphyrin levels reach a peak in surrounding tissue” value ([1]; surrounding tissue (muscle, fat), then rapid decline to basal levels) was about 4 h and the “time course of nerve fluorescence in other peripheral nerves” value ([2]; brachial plexus, compared with sciatic nerve time course) was “same results”. The brachial plexus labelling ([2]; intravenous injection) was “brachial plexus labelling”, the “red porphyrin fluorescence in rat nerves” value ([3]; 24 hours after administration) was “highly selective and localised” and the “fluorescence signal ratio versus adjacent tissues” value ([3]; tested in 5 rats) was “comparable to the intravenous injection route”. The “fluorescence intensity in nerve” value ([4]; 2 weeks after administration) was “returned close to background levels”, the “fluorescence intensity in nerve” value ([4]; 4 weeks after administration) was “returned close to background levels” and the “5-ALA-induced fluorescence (PpIX) in sciatic nerve” value ([4]; 4 hours after intravenous administration) was “detected”. For the same compound, the “5-ALA-induced fluorescence (PpIX) in sciatic nerve” value ([4]; 24 hours after intravenous administration) was “bright and localised”, the “visualisation of sciatic nerves” value ([4]; 3 days after systemic administration) was “clearly visualised” and the “visualisation of sciatic nerves” value ([4]; 5 days after systemic administration) was “clearly visualised”. For the same compound, the “shortest time after contacting or administration at which peripheral nerves can be visualised” value ([4]; peripheral nerves) was at least 1 h, the “time that peripheral nerves retain high levels of fluorescence compared to background after administration” value ([4]; peripheral nerves) was “up to 7 days” and the “time after administration at which the highest SBR may be achieved” value ([4]; peripheral nerves, PpIX cleared from adjacent tissues) was “about 24 hours”. The “5-ALA induced fluorescence (PpIX) in branches of facial nerves” value [5] was “bright and localised”.
